From patent US20230339915A1 (Vertex Pharmaceuticals Incorporated, priority 2020, published 2023)
pEC50, pIC50: −log10 of the molar value.

Legend:
[1] = biological target: purified Z-AAT protein from human plasma (Homo sapiens (Human), UniProt P01009, E366K); experiment: Biochemical Assay (Z-AAT Elastase Activity Assay); conditions: purified Z-AAT pre-incubated with compound 1 hour, then human neutrophil elastase and fluorescent substrate
Outline: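 Purified plasma Z-AAT (20 nM) preincubated with compounds 1 h at room temperature, then 3 nM human neutrophil elastase added in PBS + 0.01% BRIJ35 for 30 min to form suicide complex. Residual elastase activity read immediately by fluorescence after adding 300 μM MeOSuc-AAPV-AMC substrate solution.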

[2] = biological target: NL20 human bronchial epithelial cells expressing human Z-AAT (Homo sapiens (Human), UniProt P01009, E366K); experiment: AAT Function Assay (MSD Assay NL20-SI Cell Line); type: cell-based; conditions: functionally active AAT (AAT-hNE complex, MSD) in supernatant of NL20 cells expressing human Z-AAT; read-out: NL20 Functional EC50
Outline: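 Secreted active Z-AAT was measured by MSD electrochemiluminescence: supernatants (45-fold total dilution) were incubated with human neutrophil elastase to form AAT–elastase complexes, captured by goat anti-AAT and detected with labelled anti-elastase. Cells were doxycycline-induced (0.1 μM) NL20 bronchial cells treated with compound overnight; M-AAT standard curve.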

purified Z-AAT protein from human plasma, sequence (P01009 25-418 E366K limits assumed): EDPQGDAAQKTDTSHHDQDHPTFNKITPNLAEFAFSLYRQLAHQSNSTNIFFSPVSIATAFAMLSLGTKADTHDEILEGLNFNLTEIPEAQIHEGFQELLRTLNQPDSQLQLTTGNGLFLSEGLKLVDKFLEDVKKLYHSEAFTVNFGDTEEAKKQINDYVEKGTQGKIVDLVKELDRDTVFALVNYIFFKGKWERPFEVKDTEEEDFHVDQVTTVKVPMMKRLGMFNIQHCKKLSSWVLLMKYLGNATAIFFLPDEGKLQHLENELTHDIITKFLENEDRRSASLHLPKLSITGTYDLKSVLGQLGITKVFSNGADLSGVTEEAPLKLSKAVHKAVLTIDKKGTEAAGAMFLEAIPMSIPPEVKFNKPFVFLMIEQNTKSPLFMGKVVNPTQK
NL20 human bronchial epithelial cells expressing human Z-AAT, sequence (P01009 25-418 E366K limits assumed): as above

Row | Compound | pIC50 [1] | pEC50 [2]
1 | O=C(O)[C@H]1C[C@@H](Cc2c(C3CCOCC3)n(-c3ccc(F)cc3)c3ccc(O)cc23)C1 [Compound 35] | < 4.52 | < 5.70
2 | CO[C@]1(C(=O)O)C[C@@H](c2c(C(C)C)n(-c3ccc(F)c(C)c3)c3ccc(O)cc32)C1 [Compound 67] | < 4.52 | < 5.70
3 | Cc1cc(-n2c(C(C)C)c(C#N)c3cc(O)ccc32)ccc1F [Compound 187] | < 4.52 | 5.70 to 6.30
4 | COCC(C)(C)c1c(-c2ccc(C(=O)O)cc2)c2cc(O)c(Cl)cc2n1-c1ccc(F)cc1 [Compound 177, 4-(6-chloro-1-(4-fluorophenyl)-5-hydroxy-2-(1-methoxy-2-methylpropan-2-yl)-1H-indol-3-yl)benzoic acid] | > 5.70 | > 6.30
5 | Cc1cc(-n2c(C#N)c(-c3ccc(C(=O)O)cc3)c3cc(O)ccc32)ccc1F [Compound 175] | < 4.52 | 5.70 to 6.30
6 | Cc1cc(-n2c(C(F)(F)F)c([C@H]3C[C@](C)(C(=O)O)C3)c3cc(O)ccc32)ccc1F [Compound 139, trans-3-(1-(4-fluoro-3-methylphenyl)-5-hydroxy-2-(trifluoromethyl)-1H-indol-3-yl)-1-methylcyclobutane-1-carboxylic acid] | < 5.30 | 5.70 to 6.30
7 | Cc1cc(-n2c(C(C)C)c([C@H]3C[C@@H](C(=O)O)C3)c3cc(O)ccc32)ccc1F [Compound 146] | < 4.52 | 5.70 to 6.30
8 | COCC(C)(C)c1c(C2CC(C(=O)O)C2)c2cc(O)ccc2n1-c1ccc(F)c(C)c1 (stereo not shown) [Compound 72] | < 4.52 | < 5.70
9 | Cc1cc(-n2c(C3CCOCC3)c(CC3(C(=O)O)CCC3)c3cc(O)ccc32)ccc1F [Compound 13] | < 4.52 | < 5.70
10 | C[C@]1(C(=O)O)C[C@H](c2c(C3CCOCC3)n(-c3ccc(F)c(F)c3)c3ccc(O)cc32)C1 [Compound 39] | < 4.52 | < 5.70
11 | Cc1cc(-n2c(C(C)C)c(C(C)CC(=O)O)c3cc(O)ccc32)ccc1F (stereo not shown) [Compound 176] | < 4.52 | 5.70 to 6.30
12 | O=C(O)C1CC2(C1)CC(c1c(C3CCOCC3)n(-c3ccc(F)c(Cl)c3)c3ccc(O)cc13)C2 (stereo not shown) [Compound 31] | < 5.30 | > 6.30
13 | CCC(C(=O)O)c1c(C)n(-c2ccc(F)c(C)c2)c2ccc(O)cc12 (stereo not shown) [Compound 158] | < 4.52 | < 5.70
14 | Cc1cc(-n2c(C(C)C)c(CC(=O)O)c3cc(O)ccc32)ccc1F [Compound 153, 2-(1-(4-fluoro-3-methylphenyl)-5-hydroxy-2-isopropyl-1H-indol-3-yl)acetic acid] | < 4.52 | < 5.70
15 | Cc1cc(-n2c(C(C)C)c(C3CC4(C3)CC(F)(C(=O)O)C4)c3cc(O)ccc32)ccc1F (stereo not shown) [Compound 148, 2-fluoro-6-(1-(4-fluoro-3-methylphenyl)-5-hydroxy-2-isopropyl-1H-indol-3-yl)spiro[3.3]heptane-2-carboxylic acid] | > 5.70 | > 6.30
16 | CC(C)(CCc1c(C2CCOCC2)n(-c2ccc(F)cc2)c2ccc(O)cc12)C(=O)O [Compound 30] | < 4.52 | 5.70 to 6.30
17 | Cc1cc(-n2c(C3CCS(=O)(=O)CC3)c([C@H]3C[C@@](C(=O)O)(C(F)(F)F)C3)c3cc(O)ccc32)ccc1F [Compound 43] | < 4.52 | < 5.70
18 | O=C(O)[C@H]1CC2(C1)C[C@H](c1c(C3CCOCC3)n(-c3ccc(F)c(F)c3)c3ccc(O)cc31)C2 (stereo partly shown) [Compound 41] | < 4.52 | 5.70 to 6.30
19 | COCC(C)(C)c1c(-c2ccc(C(=O)O)cc2)c2c(Cl)c(O)ccc2n1-c1ccc(F)cc1 [Compound 178, 4-[4-chloro-1-(4-fluorophenyl)-5-hydroxy-2-(2-methoxy-1,1-dimethyl-ethyl)indol-3-yl]benzoic acid] | > 5.70 | > 6.30
20 | O=C(O)[C@H]1CC[C@@H](c2c(C3CCOCC3)n(-c3ccc(F)c(Cl)c3)c3ccc(O)cc32)CC1 [Compound 24] | < 4.52 | < 5.70
21 | Cc1cc(-n2c(C(C)C)c(-c3cccc(C(=O)O)c3)c3cc(O)ccc32)ccc1F [Compound 168] | 5.30 to 5.70 | > 6.30
22 | Cc1cc(-n2c(C(C)C)c(CC(C)(O)C(=O)O)c3cc(O)ccc32)ccc1F (stereo not shown) [Compound 152, 3-[1-(4-fluoro-3-methyl-phenyl)-5-hydroxy-2-isopropyl-indol-3-yl]-2-hydroxy-2-methyl-propanoic acid] | < 4.52 | < 5.70
23 | Cc1cc(-n2c(C(C)C)c(CCC(F)(F)C(=O)O)c3cc(O)ccc32)ccc1F [Compound 59] | < 5.30 | < 5.70
24 | CC(C)c1c(C2CC3(CC(C(=O)O)C3)C2)c2cc(O)ccc2n1-c1ccc(F)cc1 (stereo not shown) [Compound 80] | > 5.70 | 5.70 to 6.30

Row | Compound | pIC50 [1] | pEC50 [2]
25 | Cc1cc(-n2c(C(C)C)c([C@@H]3CC[C@@H]3CO)c3cc(O)ccc32)ccc1F [Compound 227] | < 4.52 | < 5.70
26 | CC(C)c1c([C@H]2C[C@](C)(C(=O)O)C2)c2cc(O)ccc2n1-c1ccc(F)c(Cl)c1 [Compound 75] | < 5.30 | 5.70 to 6.30
27 | N#Cc1c(C2CC2)n(-c2ccc(F)cc2)c2ccc(O)cc12 [Compound 203] | < 4.52 | > 6.30
28 | C[C@]1(C(=O)O)C[C@H](c2c(C3CCOCC3)n(-c3ccc(F)c(Cl)c3)c3ccc(O)cc32)C1 [Compound 27] | < 5.30 | 5.70 to 6.30
29 | CS(N)(=O)=Cc1c(C#N)c2cc(O)ccc2n1-c1ccc(F)cc1 (stereo not shown) [Compound 206, 1-(3-cyano-1-(4-fluorophenyl)-5-hydroxy-1H-indol-2-yl)-S-methylmethanesulfinamide] | < 4.52 | < 5.70
30 | CO[C@]1(C(=O)O)C[C@@H](c2c(C3CCOCC3)n(-c3ccc(F)c(C)c3)c3ccc(O)cc32)C1 [Compound 16] | < 4.52 | < 5.70
31 | Cc1cc(-n2c(C3CCOCC3)c([C@H]3CC4(C[C@H](C(=O)O)C4)C3)c3cc(O)ccc32)ccc1F (stereo partly shown) [Compound 12] | < 5.30 | > 6.30
32 | Cc1cc(-n2c(C3CCOCC3)c(-c3ccc(C(=O)O)cc3)c3cc(O)ccc32)ccc1F [Compound 166, 4-(1-(4-fluoro-3-methylphenyl)-5-hydroxy-2-(tetrahydro-2H-pyran-4-yl)-1H-indol-3-yl)benzoic acid] | < 4.52 | < 5.70
33 | Cc1cc(-n2c(C(C)C)c([C@H]3C[C@@H](C(=O)O)C3)c3cc(O)ccc32)ccn1 [Compound 144] | < 4.52 | < 5.70
34 | O=C(O)[C@H]1C[C@@H](c2c(C3CCOCC3)n(-c3ccc(F)c(F)c3)c3ccc(O)cc32)C1 [Compound 117] | < 4.52 | < 5.70
35 | Cc1cc(-n2c(C(C)C)c([C@H]3C[C@@H](C#N)C3)c3cc(O)ccc32)ccc1F [Compound 215, 3-[1-(4-fluoro-3-methyl-phenyl)-5-hydroxy-2-isopropyl-indol-3-yl]cyclobutanecarbonitrile] | < 5.30 | < 5.70
36 | CC(C)c1c([C@H]2C[C@H](C(=O)O)C2)c2cc(O)ccc2n1-c1ccc(F)c(F)c1 [Compound 141, trans-3-(1-(3,4-difluorophenyl)-5-hydroxy-2-isopropyl-1H-indol-3-yl)cyclobutane-1-carboxylic acid] | < 5.30 | 5.70 to 6.30
37 | CC(C)c1c(CCC(C)(C)C(=O)O)c2cc(O)ccc2n1-c1ccc(F)cc1 [Compound 70] | < 4.52 | 5.70 to 6.30
38 | Cc1cc(-n2c(C(C)C)c(C3CC(F)(C(=O)O)C3)c3cc(O)ccc32)ccc1F (single isomer, unassigned) [Compound 150] | < 5.30 | 5.70 to 6.30
39 | Cc1cc(-n2c(C(C)C)c([C@H]3C[C@@H](C(=O)NS(C)(=O)=O)C3)c3cc(O)ccc32)ccc1F [Compound 219, Cis-3-[1-(4-fluoro-3-methyl-phenyl)-5-hydroxy-2-isopropyl-indol-3-yl]-N-methylsulfonyl-cyclobutanecarboxamide] | < 5.30 | < 5.70
40 | Cc1cc(-n2c(C)c(C#N)c3cc(O)cc(C)c32)ccc1F [Compound 208, 1-(4-fluoro-3-methylphenyl)-5-hydroxy-2,7-dimethyl-1H-indole-3-carbonitrile] | < 4.52 | < 5.70
41 | CC(C)c1c([C@H]2C[C@@H](C(=O)O)C2)c2cc(O)ccc2n1-c1ccc(F)c(Cl)c1 [Compound 78] | < 5.30 | < 5.70
42 | O=C(O)[C@]1(C(F)(F)F)C[C@H](c2c(C3CCOCC3)n(-c3ccc(F)c(Cl)c3)c3ccc(O)cc32)C1 [Compound 38] | < 4.52 | < 5.70
43 | C/C=C/c1c(C#N)c2cc(O)ccc2n1-c1ccc(F)cc1 [Compound 191, 1-(4-fluorophenyl)-5-hydroxy-2-[(E)-prop-1-enyl]indole-3-carbonitrile] | < 4.52 | < 5.70
44 | Cc1cc(-n2c(C3CCOCC3)c([C@H]3C[C@@](CO)(C(=O)O)C3)c3cc(O)ccc32)ccc1F [Compound 109] | < 4.52 | < 5.70
45 | COCC(C)(C)c1c(CC2(C(=O)O)CC2)c2cc(O)ccc2n1-c1ccc(F)c(C)c1 [Compound 81] | < 4.52 | 5.70 to 6.30
46 | O=C(O)[C@H]1CC[C@@H](c2c(C3CCOCC3)n(-c3ccc(F)c(F)c3)c3ccc(O)cc32)CC1 [Compound 138] | < 4.52 | < 5.70
47 | Cc1cc(-n2c(C3CCOCC3)c(C[C@H]3CC[C@H](C(=O)O)CC3)c3cc(O)ccc32)ccc1F [Compound 5] | < 4.52 | < 5.70
